From patent USRE47193E1, “Selectively substituted quinoline compounds” (EISAI R&D MANAGEMENT CO., LTD., priority 2013, dated 2019)

System: Human TLR7/8
Assay: Human PBMC cell-based assay, TLR7/8 stimulus (RNA-Ig), cytokine ELISA
Conditions: primary human PBMC assay, TLR7/8 potency; ligand not given; read-out: Human PBMCs IC50
Experimental: Human PBMC Cell-Based Assay. Human peripheral blood mononuclear cells (PBMC) were isolated from freshly-drawn heparinized (10 USP units/ml, Hospira, Lakeforest, Ill.) healthy donor whole blood by density gradient (Histopaque® 1077, Sigma, Inc., St. Louis, Mo.). Briefly, 25 ml blood was diluted with 15 ml PBS (without Ca^2+, Mg^2+) in a 50 ml conical tube, and 12 ml Histopaque was underlaid using a spinal needle. Tubes were centrifuged for 45 minutes at 1200 rpm (350×g), and PBMC were collected from the buffy coat. Cells were then washed twice in PBS, and red blood cells were lysed by suspension in 5 ml ammonium chloride solution (1× Red Blood Cell Lysis Buffer, eBioscience) for 5 minutes at room temperature. After a final wash in PBS, PBMC were resuspended at a final concentration of 2×10^6/ml in RPMI-1640 media with L-glutamine (Invitrogen) and supplemented with 25 mM HEPES (Mediatech, Inc, Manassas Va.), 10% fetal bovine serum (HyClone, Logan, Utah), and Penicillin-Streptomycin-Glutamine (Mediatech) and plated at 100 ul/well (2×10^5 cells/well) in tissue culture treated 96-well plates (Falcon).
Antagonist compounds solubilized and serial diluted in 100% DMSO were added in triplicate to cells to yield a final concentration of 0.1% DMSO (v/v). Hydroxychloroquine (Acros Organics) solubilized and serial diluted in PBS was added in triplicate to cells. PBMC were incubated with antagonist compounds or HCQ for 30 minutes at 37° C., 5% CO2 before adding various TLR agonist reagents in 100 ul complete media per well as follows (final concentrations indicated): R848 (Resiquimod; GLSynthesis, Worcester, Mass.) at 1 uM for TLR7 and TLR8, LPS (Sigma) at 10 ng/ml for TLR4, and CpG-2216 (InvivoGen) at 5 ug/ml for TLR9. To prepare a TLR7/8 agonist that mimics RNA-containing auto-antibody immune complexes in lupus patients, a 26-mer RNA with a sequence derived from human U1 snRNA stem loop IV [(sequence: […]-[…] (SEQ ID NO: 2) with phosphorothioate backbone] was synthesized (Dharmacon, Inc., Lafayette, Colo.), which has been shown previously to be a potent TLR7 and TLR8 agonist. This RNA molecule was diluted to 2.5 μM in serum-free RPMI, and mouse anti-human single stranded DNA monoclonal antibody (MAB3034, Millipore, Inc., Billerica, Mass.), which also cross-reacts with RNA, was added at a 1:25 dilution or at 1 ug/ml. The resulting “RNA-Ig” stimulus was incubated at room temperature for 15-30 minutes before adding to cells. PBMC were incubated with the various TLR agonists for 20 hours at 37° C., 5% CO2. Cell culture supernatants were collected, and levels of various human cytokines were assessed as indicated by standard ELISA procedure according to the manufacturer's recommended protocol (BD Biosciences, Inc., San Diego, Calif.). In a subsequent assay (Table 6) the ability of ER-899742 to block stimulation of normal PBMC by various TLR7/8 ligands, but not DNA-mediated activation of TLR9, was examined. In this assay cells were plated at 1×10^5 cells/well in 100 ul in 96-well plates.

| SMILES | IC50 |
| --- | --- |
| C[C@@H]1CN(c2ccc(C#N)c3ncccc23)C[C@H](CN2CCNC(=O)[C@H]2C)O1 [ER-894483] | 209 nM |
| CC1CN(c2ccc(C#N)c3ncccc23)CC(CN2CCC(CO)CC2)O1 (stereo not drawn) [ER-889557] | 85 nM |
| CC1CN(c2ccc(C#N)c3ncccc23)CC(C(=O)NCC2COC2)O1 (stereo not drawn) [ER-899121] | 142 nM |
| CC1CN(c2ccc(C#N)c3ncccc23)CC(C(=O)NCc2ccn[nH]2)O1 (stereo not drawn) [ER-899287] | 120 nM |
| C[C@@H]1CN(c2ccc(C#N)c3ncccc23)C[C@H](CN2CCN(C(N)=O)CC2)O1 [ER-888330] | 154 nM |
| C[C@@H]1CN(c2ccc(C#N)c3ncccc23)C[C@H](CN2CCCCC2)O1 [ER-888202] | 8 nM |
| CC1CN(c2ccc(C#N)c3ncccc23)CC(COc2cnccn2)O1 (stereo not drawn) [ER-894552] | 17 nM |
| CC1CN(CC2CN(c3ccc(C#N)c4ncccc34)CC(C)O2)CC(CO)O1 (stereo not drawn) [ER-888205] | 40 nM |
| CC1CN(c2ccc(C#N)c3ncccc23)CC(CN2CCCCC2C)O1 (stereo not drawn) [ER-886957] | 17 nM |
| CC1CN(c2ccc(C#N)c3ncccc23)CC(C(=O)NCC2(F)CCNCC2)O1 (stereo not drawn) [ER-899019] | 14 nM |
| CC1CN(c2ccc(C#N)c3ncccc23)CC(C(=O)NCC2CN(C)CCO2)O1 (stereo not drawn) [ER-897945] | 2 nM |
| CC(=O)N[C@@H]1CCN(C[C@H]2CN(c3ccc(C#N)c4ncccc34)C[C@@H](C)O2)C1 [ER-890252] | 42 nM |
| C[C@@H]1CN(c2ccc(C#N)c3ncccc23)C[C@H](CNc2ccnn2-c2ccccc2)O1 [ER-886860] | 240 nM |
| C[C@@H]1CN(c2ccc(C#N)c3ncccc23)C[C@H](CN2CCOCC2)O1 [ER-888203] | 105 nM |
| CCC[C@H]1CN(c2ccc(C#N)c3ncccc23)C[C@@H](C)O1 [ER-886131] | 98 nM |
